# Square brackets hold non-standard residues; d marks the D form. Ends that are not written are not given here.
# What was measured:
# Format in all cases: in vivo
# [1] = test system: HMGB1; assay: Mouse model of rheumatoid arthritis (type II collagen-induced); serum HMGB1 by ELISA and arthritis incidence; conditions: BALB/c male mice
# Method: (§1) This example illustrates that compound (I) is useful for treating arthritis, the HMGB1-dependent disease.
# An efficacy of the compound of the invention was tested in a mouse model of rheumatoid arthritis, as described in Brand et al., Nat Protoc. 2007, 2(5):1269-75. Male BALB/c mice were randomized into two groups of 5 animals each. Arthritis was induced in using an intradermal injection of cold emulsion (0.05 ml) prepared by emulsifying chicken type II collagen (CII) solution in acetic acid with complete Freund's adjuvant (CFA) into the base of the tail. Three weeks later, the mice were administered by a second injection in the same manner. Following the booster immunization, mice received 50 μL saline i.p. (control) or 100 μg/kg H-Tyr-D-Ala-Gly-Phe-Leu-Arg-Arg-NH2 in 50 μL saline i.p., once-a-day, for two weeks. The serum level of HMGB1 was determined on day 35 with commercially available ELISA kit for HMGB1 (SEA3999Mu, Cloud-Clone corp.). The clinical severity of arthritis in each paw was quantified according to a graded scale from 0 to 4, as described in Brand et al., Nat Protoc. 2007, 2(5):1269-75. Results are presented in Table 2 as and mean±SEM (n=5) of HMGB1 levels in serum in % of control and arthritis incidence.
# [2] = test system: HMGB1; assay: Mouse model of antigen-induced arthritis (mBSA); knee swelling and HMGB1 in synovial lavage fluid by ELISA; conditions: C3H/He male mice, 0.14 mg/kg s.c. once-a-day for 5 days, 25th day, mean±SEM (n=6)
# Method: as §1
# An efficacy of H-Tyr-D-Ala-Gly-Phe-Leu-Arg-Arg-NH2 acetate was tested in a mouse model of antigen-induced arthritis induced by methylated bovine serum albumin (mBSA), as described in Brackertz et al., Arthritis Rheum. 1977, 20(3):841-50; Staite et al., Agents and Actions 1989, 27(3/4):338-40. Briefly, male C3H/He mice 8-10 weeks of age were randomized into two groups of 6 animals each. Immunization: the mice were immunized 2 times (on the 0th and 7th days) with s.c. injections of mBSA (50 mg/kg, Sigma-Aldrich) emulsified in 20 μL Freund's complete adjuvant and on the 21st day received intra-articular injection of mBSA (50 mg/kg) in 20 μL saline in the right hind knee as a booster immunization. […] Treatment: the mice received s.c. injections either 0.1 ml saline (control, n=6) or 0.14 mg/kg H-Tyr-D-Ala-Gly-Phe-Leu-Arg-Arg-NH2 acetate in 0.1 ml saline (n=6), once-a-day for 5 consecutive days, beginning 30 min after the booster immunization. The disease course was quantified by assessment of the swelling of the arthritic knee joint on 25th day. HMGB1 levels (pg/ml) in the synovial lavage fluids of the arthritic joint on 25th day was measured using ELISA (SEA3999Mu, Cloud-Clone corp.). […]
# [3] = test system: HMGB1; assay: Mouse model of acute lung injury induced by intratracheal LPS; HMGB1 in bronchoalveolar fluid by ELISA; conditions: C57Bl/6 male mice, BALF after 48 hours, mean±SEM (n=6)
# Method: This example illustrates efficacy of compounds of the invention in the inhibition of HMGB1 secretion.
# Compounds of the invention were tested in a mouse model of acute lung injury induced by intratracheal administration of lipopolysaccharide (LPS) as described, for instance, in D'Alessio F R. Mouse Models of Acute Lung Injury and ARDS. Methods Mol Biol. 2018, 1809:341-350. C57BI/6 male mice were randomized into eight groups of 6 animals each. Mice were treated intratracheally with 1 μg/mouse of α-Galactosyl Ceramide (α-GalCer, KRN7000, Sigma-Aldrich) and after 24 hours with LPS (E. coli; 1 mg/mouse) and 10 μL/mouse Freund's complete adjuvant. Then, mice received by inhalation 50 μL saline (control); 10, 100, or 250 μg/kg of H-Tyr-D-Ala-Gly-Phe-Leu-Arg-Arg-NH2; 100 μg/kg of H-Tyr-D-Ala-Gly-Phe-Leu-Arg-Arg-NHC2H5; 100 μg/kg of H-Tyr-D-Ala-Gly-Phe-Leu-Arg-Arg-NHC4H9; 100 μg/kg of H-Tyr-D-Ala-Gly-Phe-Leu-Arg-Arg-N(CH3)2; 10 μg/kg H-Tyr-D-Ala-Gly-Phe-Leu-Arg-Arg-OH (Chavkin C et al. 1981); or 250 μg/kg of [D-Ala^2, D-Leu^5]-enkephalin as solutions in 50 μL. saline. After 48 hours, HMGB1 concentrations were measured in bronchoalveolar fluid (BALF) with commercially available ELISA kit for HMGB1 (SEA3999Mu, Cloud-Clone corp.). Results are presented in Tables 1 as mean±SEM (n=6) of HMGB1 levels in BALF, in % of control.
substance,measurement,setting,value
"L-tyrosyl-D-alanyl-L-glycyl-L-phenylala nyl-L-leucyl-L-arginyl-L-arginine amide acetate (Y[dA]GFLRR-NH2; also: acetate salt) [heptapeptide amide of formula (I), Z = NH2]",Arthritis incidence,[1]; 100 μg/kg i.p. once-a-day for two weeks (n=5),20%
same,"HMGB1 in serum, % of control","[1]; 100 μg/kg i.p. once-a-day for two weeks, day 35, mean±SEM (n=5)",21.5 ± 5.9 %
same,HMGB1 in synovial lavage fluid of the arthritic joint,[2],119 ± 38 pg/mL
same,Knee joint circumference,[2],1.32 ± 0.04 cm
same,"HMGB1 in BALF, % of control",[3]; 100 μg/kg by inhalation,31.8 ± 12.4 %
same,"HMGB1 in BALF, % of control",[3]; 250 μg/kg by inhalation,34.2 ± 8.0 %
H-Tyr-D-Ala-Gly-Phe-Leu-Arg-Arg-N(CH3)2 acetate (H-Y[dA]GFLRR-NMe2; also: acetate salt) [heptapeptide dimethylamide of formula (I)],"HMGB1 in BALF, % of control",[3]; 100 μg/kg by inhalation,42.3 ± 5.9 %
"H-Tyr-D-Ala-Gly-Phe-Leu-Arg-Arg-OH (H-Y[dA]GFLRR-OH; also: acetate salt) [modified [D-Ala^2]-dynorphin (1-7) described by Chavkin C et al. 1981; structurally similar comparison peptide, reference compound]","HMGB1 in BALF, % of control",[3]; 10 μg/kg by inhalation,88.67 ± 10.5%
H-Tyr-D-Ala-Gly-Phe-Leu-Arg-Arg-NHC2H5 acetate (H-Y[dA]GFLRR-NHEt; also: acetate salt) [heptapeptide ethylamide of formula (I)],"HMGB1 in BALF, % of control",[3]; 100 μg/kg by inhalation,35.2 ± 7.2 %
H-Tyr-D-Ala-Gly-Phe-Leu-Arg-Arg-NHC4H9 acetate (H-Y[dA]GFLRR-NHC4H9; also: acetate salt) [heptapeptide butylamide of formula (I)],"HMGB1 in BALF, % of control",[3]; 100 μg/kg by inhalation,40.1 ± 5.0 %

# Reference: US20240199693A1, “HE[…] FOR USE IN THE TREATMENT OF HMGB1-DEPENDENT DISEASES” (priority 2021, published 2024)
